For this assay, the target named is PCSK9 (Homo sapiens, UniProt Q8NBP7). Briefly: SPR competition assay against the EGFa domain of LDLR. It is filed as binding.

Take `COc1ccc2nc(N)[nH]c2c1C#N` [Fig 12A, cyano-benzimidazole derivative]: the IC50 turned out to be 103 µM.

By IC50 is commonly meant the concentration that inhibits the measured activity by half. Read a high IC50 as a need for much substance.

Source of the values: PMC6894869, “Fragment-based design of small molecule PCSK9 inhibitors using simulated annealing of chemical potential simulations” (PLoS ONE, 2019).
